Laboratory results from article PMC4832243, “Discovery of Potent VEGFR-2 Inhibitors based on Furopyrimidine and Thienopyrimidne Scaffolds as Cancer Targeting Agents” (Scientific Reports, 2016).
pIC50: −log10 of the molar value.

What was measured:
VEGFR-2 (KDR) = target: T1, VEGFR-2 (KDR) (Homo sapiens, UniProt P35968); experiment: In vitro VEGFR-2 tyrosine kinase activity (Kinase-Glo Plus luminescence, BPS Bioscience); assay type: biochemical; conditions: for inhibition at 10 µM: single dose concentration of 10 μM; for pIC50: 5 concentrations 1 nM - 10 μM
T1 construct: purchased BPS Bioscience 40301
T1 sequence (P35968 20-1356): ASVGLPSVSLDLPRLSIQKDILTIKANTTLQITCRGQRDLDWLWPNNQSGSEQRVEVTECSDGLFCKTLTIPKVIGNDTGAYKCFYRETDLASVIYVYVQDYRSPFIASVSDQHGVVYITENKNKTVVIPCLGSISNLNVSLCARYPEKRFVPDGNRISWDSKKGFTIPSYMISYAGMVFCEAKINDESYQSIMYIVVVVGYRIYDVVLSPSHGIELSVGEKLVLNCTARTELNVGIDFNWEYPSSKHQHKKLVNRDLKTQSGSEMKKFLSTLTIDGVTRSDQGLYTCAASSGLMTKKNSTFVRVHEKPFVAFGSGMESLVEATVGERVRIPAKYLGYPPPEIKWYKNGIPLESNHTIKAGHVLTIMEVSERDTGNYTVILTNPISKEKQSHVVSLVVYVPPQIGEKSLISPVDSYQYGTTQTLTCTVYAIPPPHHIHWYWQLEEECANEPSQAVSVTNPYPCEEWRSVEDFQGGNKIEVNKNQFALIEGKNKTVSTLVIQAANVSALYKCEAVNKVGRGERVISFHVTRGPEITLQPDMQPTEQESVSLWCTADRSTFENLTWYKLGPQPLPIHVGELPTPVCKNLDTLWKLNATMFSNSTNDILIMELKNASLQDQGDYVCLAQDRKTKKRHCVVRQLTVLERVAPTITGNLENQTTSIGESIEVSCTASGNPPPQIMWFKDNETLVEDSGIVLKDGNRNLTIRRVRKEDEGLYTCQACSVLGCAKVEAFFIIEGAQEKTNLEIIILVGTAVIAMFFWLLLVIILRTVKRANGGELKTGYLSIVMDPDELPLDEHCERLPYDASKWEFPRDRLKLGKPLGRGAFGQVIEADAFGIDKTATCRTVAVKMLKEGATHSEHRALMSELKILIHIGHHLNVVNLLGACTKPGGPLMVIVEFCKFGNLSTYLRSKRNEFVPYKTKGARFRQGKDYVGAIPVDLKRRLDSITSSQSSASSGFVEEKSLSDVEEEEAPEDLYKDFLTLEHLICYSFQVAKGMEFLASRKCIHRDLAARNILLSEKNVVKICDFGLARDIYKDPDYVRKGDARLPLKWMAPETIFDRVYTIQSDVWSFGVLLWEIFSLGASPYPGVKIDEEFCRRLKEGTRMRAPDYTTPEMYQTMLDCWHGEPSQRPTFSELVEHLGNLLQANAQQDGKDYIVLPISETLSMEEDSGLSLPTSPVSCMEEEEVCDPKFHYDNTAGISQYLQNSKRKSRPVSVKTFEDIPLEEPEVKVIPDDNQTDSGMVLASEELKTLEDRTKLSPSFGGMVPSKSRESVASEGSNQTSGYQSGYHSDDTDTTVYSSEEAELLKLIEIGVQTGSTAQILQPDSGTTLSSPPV

[1] = test system: HUVEC umbilical vein endothelial cells; experiment: In vitro HUVEC anti-proliferative assay (alamarBlue); assay type: cell-based; conditions: Homo sapiens, HUVEC proliferation at 10 μM, 72 hours; for activity at 10 µM: read-out: % Cell growth; for inhibition at 10 µM: read-out: % Cell inhibition

melting point | inhibition at 10 µM (VEGFR-2 (KDR)) | pIC50 (VEGFR-2 (KDR)) | SMILES | activity at 10 µM [1] | inhibition at 10 µM [1]
238 to 240 °C | 14% |  | CCOC(=O)c1c(C)oc2ncnc(Nc3ccc(C(=O)Nc4ccc(Cl)c(C(F)(F)F)c4)cc3)c12 [Compound 14d] |  | 
235 to 238 °C | 14% |  | CCOC(=O)c1c(C)oc2ncnc(Nc3ccc(C(=O)Nc4ccc(C)cc4)cc3)c12 [Compound 14c] |  | 
262 to 265 °C | 14% |  | CCOC(=O)c1c(C)oc2ncnc(Nc3ccc(NC(=O)Nc4ccc(Cl)cc4)cc3)c12 [Compound 15e] |  | 
224 to 228 °C | 45% |  | CCOC(=O)c1c(C)oc2ncnc(Nc3ccc(NC(=O)Nc4cccc(Br)c4)cc3)c12 [Compound 15h] |  | 
> 300 °C | > 70% |  | Cc1ccc(NC(=O)Nc2ccc(Nc3ncnc4sc5c(c34)CCCC5)cc2)cc1Cl [Compound 20f] |  | 
183 to 185 °C | 27% |  | CCOC(=O)c1c(C)oc2ncnc(Oc3ccc(NC(=O)Nc4ccccc4)cc3)c12 [Compound 16a] |  | 
240 to 244 °C | > 70% |  | CCOC(=O)c1c(C)oc2ncnc(Nc3ccc(NC(=O)Nc4cccc(C(C)=O)c4)cc3)c12 [Compound 15g] |  | 
116 to 119 °C | > 70% | 6.00 | CCOC(=O)c1c(C)oc2ncnc(Oc3ccc(NC(=O)Nc4cccc(C)c4)cc3)c12 [Compound 16b] | 73.3% | 26.6%
265 to 269 °C | > 70% | 5.82 | CC(=O)c1cccc(NC(=O)Nc2ccc(Nc3ncnc4sc5c(c34)CCCC5)cc2)c1 [Compound 20g] | 29.2% | 70.8%
220 to 222 °C | 62% |  | CCOC(=O)c1c(C)oc2ncnc(Nc3ccc(NC(=O)Nc4cccc(OC)c4)cc3)c12 [Compound 15c] |  | 
> 250 °C |  | 6.02 | CCOC(=O)c1c(C)oc2ncnc(Nc3ccc(NC(=O)Nc4cccc(C)c4)cc3)c12 [Compound 15b] | 0.5% | 99.5%
 | 19% |  | CCOC(=O)c1c(C)oc2ncnc(Nc3ccc(NC(=O)Nc4ccccc4)cc3)c12 [Compound 15a] |  | 
254 to 256 °C |  | 5.68 | CCOC(=O)c1c(C)oc2ncnc(Nc3ccc(NC(=O)Nc4ccc(C)c(Cl)c4)cc3)c12 [Compound 15f] | 97.7% | 2.32%
> 250 °C | 15% |  | CCOC(=O)c1c(C)oc2ncnc(Nc3ccc(NC(=O)c4ccc(Cl)cc4)cc3)c12 [Compound 13b] |  | 
232 to 236 °C | 8% |  | CCOC(=O)c1c(C)oc2ncnc(Nc3ccc(NC(=O)c4cccc(Cl)c4)cc3)c12 [Compound 13a] |  | 
 |  | 6.26 | CCOC(=O)c1c(C)oc2ncnc(Oc3ccc(NC(=O)Nc4cccc(OC)c4)cc3)c12 [Compound 16c] | 32.1% | 67.9%
215 to 219 °C | 40% |  | CCOC(=O)c1c(C)oc2ncnc(Oc3ccc(NC(=O)Nc4ccc(Cl)cc4)cc3)c12 [Compound 16d] |  | 
> 300 °C | 32% |  | O=C(Nc1ccc(Cl)cc1)Nc1ccc(Nc2ncnc3sc4c(c23)CCCC4)cc1 [Compound 20e] |  | 
> 250 °C | 47% |  | Cc1cccc(NC(=O)Nc2ccc(Nc3ncnc4sc5c(c34)CCCC5)cc2)c1 [Compound 20b] |  | 
